Data: US12390437B2, “Itaconic acid derivatives and uses thereof intreating an inflammatory disease or a disease associated with an undesirable immune response” (Sitryx Therapeutics Limited, priority 2019, dated 2025)

How the values were obtained:
[1] = test system: IL-6 cytokine output from THP-1s; assay: THP-1 AlphaLISA IL-6 cytokine assay; assay type: cell-based, human; conditions: Homo sapiens; PMA-differentiated THP-1 cells, LPS 24 hr then Nigericin 1 hour
Procedure: Measuring Inhibitory Effects on IL-1β and IL-6 Cytokine Output from THP-1s
The cytokine inhibition profiles of compounds of formula (IW-1) were determined in a differentiated THP-1 cell assay. All assays were performed in RPMI-1640 growth medium (Gibco), supplemented with 10% fetal bovine serum (FBS; Gibco), 1% penicillin-streptomycin and 1% sodium pyruvate unless specified otherwise. The IL-1β and IL-6 cytokine inhibition assays were each run in a background of differentiated THP-1 cells as described below. All reagents described were from Sigma-Aldrich unless specified otherwise. Compounds were prepared as 10 mM DMSO stocks.
THP-1 cells were expanded as a suspension up to 80% confluence in appropriate growth medium. Cells were harvested, suspended, and treated with an appropriate concentration of phorbol 12-myristate 13-acetate (PMA) over a 72 hr period (37° C./5% CO2).
Following 72 hrs of THP-1 cell incubation, cellular medium was removed and replaced with fresh growth media containing 1% of FBS. Working concentrations of compounds were prepared separately in 10% FBS treated growth medium and pre-incubated with the cells for 30 minutes (37° C./5% CO2). Following the 30 minute compound pre-incubation, THP-1s were treated with an appropriate concentration of LPS and the THP-1s were subsequently incubated for a 24 hr period (37° C./5% CO2). An appropriate final concentration of Nigericin was then dispensed into the THP-1 plates and incubated for 1 hour (37° C./5% CO2) before THP-1 supernatants were harvested and collected in separate polypropylene 96-well holding plates.
Reagents from each of the IL-1β and IL-6 commercial kits (Perkin Elmer) were prepared and run according to the manufacturer's instructions. Subsequently, fluorescence signal detection in a microplate reader was measured (EnVision® Multilabel Reader, Perkin Elmer).
Percentage inhibition was calculated per cytokine by normalising the sample data to the high and low controls used within each plate (+/−LPS respectively). Percentage inhibition was then plotted against compound concentration and the 50% inhibitory concentration (IC50) was determined from the resultant concentration-response curve.

[2] = test system: IL-1β cytokine output from THP-1s; assay: THP-1 AlphaLISA IL-1β cytokine assay; assay type: cell-based, human; conditions: Homo sapiens, THP-1, PMA-differentiated THP-1 cells, LPS 24 hr then Nigericin 1 hour; read-out: IL-1β (IC50)
In short: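 THP-1 cells, PMA-differentiated 72 h; 30 min compound pre-incubation; LPS 24 h; nigericin 1 h; 37 °C/5% CO2. Supernatants read by AlphaLISA kit. IC50 from % inhibition vs concentration, normalised to +LPS (high) and −LPS (low) controls.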

NRF2 = NRF2 +/-GSH activation assay (DiscoverX PathHunter NRF2 translocation kit, U2OS cells); assay type: cell-based; conditions: Homo sapiens, GSH condition not stated in Table 5; for Emax: U2OS, normalised to dimethyl fumarate 'High' control, read-out: NRF2 activation Emax; for EC50: U2OS PathHunter cells, 6 hours, read-out: NRF2 activation EC50
Procedure: Measuring Compound Activation Effects on the Anti-Inflammatory Transcription Factor NRF2 in DiscoverX PathHunter NRF2 Translocation Kit
Potency and efficacy of compounds of formula (IW-1) against the target of interest to activate NRF2 (nuclear factor erythroid 2-related factor 2) were determined using the PathHunter NRF2 translocation kit (DiscoverX). The NRF2 translocation assay was run using an engineered recombinant cell line, utilising enzyme fragment complementation to determine activation of the Keap1-NRF2 protein complex and subsequent translocation of NRF2 into the nucleus. Enzyme activity was quantified using a chemiluminescent substrate consumed following the formation of a functional enzyme upon PK-tagged NRF2 translocation into the nucleus.
The assay was run under either +/−GSH (glutathione) conditions to determine the attenuating activities of GSH against target compounds.
Additionally, a defined concentration of dimethyl fumarate was used as the ‘High’ control to normalise test compound activation responses to.
U2OS PathHunter eXpress cells were thawed from frozen prior to plating. Following plating, U2OS cells were incubated for 24 hrs (37° C./5% CO2) in commercial kit provided cell medium.
Following 24 hrs of U2OS incubation, cells were directly treated with an appropriate final concentration of compound, for −GSH conditions, or for +GSH conditions, an intermediate plate containing 6× working concentrations of compound stocks was prepared in a 6 mM working concentration of GSH solution (solubilised in sterile PBS). Following a 30 minute compound-GSH pre-incubation (37° C./5% CO2) for +GSH treatment, plated U2OS cells were incubated with an appropriate final concentration of compound and GSH.
Following compound (+/−GSH) treatment, the U2OS plates were incubated for a further 6 hours (37° C./5% CO2) before detection reagent from the PathHunter NRF2 commercial kit was prepared and added to test plates according to the manufacturer's instructions. Subsequently, the luminescence signal detection in a microplate reader was measured (PHERAstar®, BMG Labtech).
Percentage activation was calculated by normalising the sample data to the high and low controls used within each plate (+/−DMF). Percentage activation/response was then plotted against compound concentration and the 50% activation concentration (EC50) was determined from the plotted concentration-response curve.

[3] = Mouse pharmacokinetic study, intravenous dosing; assay type: in vivo; conditions: male, C57BL/6, mouse, iv, plasma, 10 mg/kg i.v., read-out: Parent compound concentration following intravenous administration
Procedure: Pharmacokinetic studies were carried out in 6-8-week-old male C57BL/6 mice having free access to food and water. Intravenous dosing was conducted at 10 mg/kg (5 mL/kg; vehicle: 10% DMSO-90% (25% HP-13-CD in water)) via tail vein injection, with sampling at 3 min, 8 min, 15 min, 30 min, 1, 2, 4, 6 and 8 hours, i.e., 9 time points in total (N=3/time point), using semi-serial bleeding for plasma. Oral compound administration, via gavage, was carried out at 100 mg/kg (10 mL/kg; vehicle: 5% DMSO-95% (0.5% HPMC+0.1% Tween 80 in water)), with sampling at 5 min, 15 min, 30 min, 1, 2, 4, 6, 8 and 24 hours, i.e., 9 time points in total (N=3/time point), using semi-serial bleeding for plasma.
For both intravenous and oral routes, the mice were restrained manually at the designated time points, with ca. 110 μL of blood being taken into K2EDTA tubes via the facial vein. Blood samples were put on ice and centrifuged to obtain plasma samples from which the concentration at each time point was measured by LC-MS/MS.

Row | SMILES | IC50 [1] [µM] | IC50 [2] [µM] | EC50 (NRF2) [µM] | Emax (NRF2) [%] | further results
1 | C=C(CC(=O)OCc1ccc(F)cc1)C(=O)OCCC(=O)O [Example 81, 3-((4-((4-fluorobenzyl)oxy)-2-methylene-4-oxobutanoyl)oxy)propanoic acid] | 52.1 | 100 | 24.9 | 110 | –
2 | C=C(CC(=O)OCCCCCC)C(=O)OCC(=O)NS(=O)(=O)N(C)C [Example 118, 1-(2-((N,N-dimethylsulfamoyl)amino)-2-oxoethyl) 4-hexyl 2-methylenesuccinate] | 14 | 16.2 | – | – | concentration at 0.05 h ([3]; time 0.05 h): 3050 ng/mL; concentration at 0.133 h ([3]; time 0.133 h): 161 ng/mL; concentration at 0.25 h ([3]; time 0.25 h): 8 ng/mL; concentration at 0.5 h ([3]; time 0.5 h): 2.4 ng/mL; concentration at 1 h ([3]; time 1 h): < 0.8 ng/mL; concentration at 2 h ([3]; time 2 h): < 0.8 ng/mL; concentration at 4 h ([3]; time 4 h): < 0.8 ng/mL; concentration at 6 h ([3]; time 6 h): < 0.8 ng/mL; concentration at 8 h ([3]; time 8 h): < 0.8 ng/mL
3 | C=C(CC(=O)OCc1ccc(F)cc1)C(=O)OCC(=O)O [Example 93, 2-((4-((4-fluorobenzyl)oxy)-2-methylene-4-oxobutanoyl)oxy)acetic acid] | 28.1 | 73.8 | 36 | 118 | –
4 | C=C(CC(=O)OC1CCCCCCC1)C(=O)OC1CCN(S(C)(=O)=O)CC1 [Example 69, 4-cyclooctyl 1-(1-(methylsulfonyl)piperidin-4-yl) 2-methylenesuccinate] | 2.2 | 1.7 | 14.7 | 111 | –
5 | C=C(CC(=O)OCCCCCCCC)C(=O)OC1CN(C(C)=O)C1 [Example 50, 1-(1-acetylazetidin-3-yl) 4-octyl 2-methylenesuccinate] | 1.7 | 2.7 | 3.2 | 225 | –
6 | C=C(CC(=O)OC1CCCCCCC1)C(=O)OC1CS(=O)(=O)C1 [Example 54, 4-cyclooctyl 1-(1,1-dioxidothietan-3-yl) 2-methylenesuccinate] | 1.5 | 3.9 | 2.8 | 105 | –
7 | C=C(CC(=O)OCC(C)(C)C)C(=O)OCC(=O)O [Example 92, 2-((2-methylene-4-(neopentyloxy)-4-oxobutanoyl)oxy)acetic acid] | 21.2 | 75.3 | 37.8 | 109 | –
8 | C=C(CC(=O)OCCCCCC)C(=O)OCCC(=O)O [Example 85, 3-((4-(hexyloxy)-2-methylene-4-oxobutanoyl)oxy)propanoic acid] | 18.6 | 22.6 | 25 | 163 | –

Further lines, with some results ahead:

Row | IC50 [1] [µM] | IC50 [2] [µM] | EC50 (NRF2) [µM] | SMILES | Emax (NRF2) [%] | further results
9 | 2.5 | 1.9 | 37.6 | C=C(CC(=O)OCCCCCCCC)C(=O)OCC(=O)N1CCC[C@H]1C(=O)O [Example 99, (2-((2-methylene-4-(octyloxy)-4-oxobutanoyl)oxy)acetyl)-L-proline] | 227 | –
10 | 4.3 | 2.1 | 14.7 | C=C(CC(=O)OCCCCCCCC)C(=O)OCC(=O)N(C)CC(=O)O [Example 98, 2-(N-methyl-2-((2-methylene-4-(octyloxy)-4-oxobutanoyl)oxy)acetamido)acetic acid] | 193 | –
11 | 4.7 | 15.2 | 37.9 | C=C(CC(=O)OCCCCCCCC)C(=O)OC(C)C(=O)N1CCC[C@H]1C(=O)O (stereo partly drawn) [Example 101, (2-((2-methylene-4-(octyloxy)-4-oxobutanoyl)oxy)propanoyl)-L-proline] | 186 | –
12 | 5.1 | 11 | 48.7 | C=C(CC(=O)OCCCCCCCC)C(=O)OC(C)C(=O)N(C)CC(=O)O (centres unmarked) [Example 100, N-methyl-N-(2-((2-methylene-4-(octyloxy)-4-oxobutanoyl)oxy)propanoyl)glycine] | 195 | –
13 | 1.1 | 1.5 | 6.5 | C=C(CC(=O)OCCCCCCCC)C(=O)OC(C)C(=O)NCC(=O)O (centres unmarked) [Example 102, (2-((2-methylene-4-(octyloxy)-4-oxobutanoyl)oxy)propanoyl)glycine] | 191 | –
